Experimental data: patent US20240018140A1, “MODIFIED IMIDAZOPYRIDINES AS GLUCOSYLCERAMIDE SYNTHASE INHIBITORS” (Merck Sharp & Dohme LLC, priority 2020, published 2024)
pEC50: −log10 of the molar value.

Molecular target: glucosylceramide synthase (GCS) (Homo sapiens (Human), UniProt Q16739)
Assay: UDP-Glo glucosylceramide synthase biochemical assay
Settings: endogenous GCS in Golgi preparations from human A375 malignant melanoma skin cells; C6 ceramide and UDP-glucose substrates; 20 h incubation; UDP detected by luminescence
Text: UDP-Glo™ Glucosylceramide Synthase Biochemical Assay
A UDP-Glo™ glucosylceramide synthase biochemical assay was utilized to evaluate the effect of test compounds on the activity of endogenous levels of GCS enzyme contained within Golgi preparations isolated from human A375 malignant melanoma skin cells. The UDP-Glo™ glucosylceramide synthase assay uses UDP-Glucose as a nucleotide-glycosyl donor and ceramide as substrate acceptor molecules. In the reaction, glucosylceramide synthase (GCS) transfers glucose from UDP-Glucose to ceramide. Glucosylceramide and UDP are released as products.
Using Promega's UDP-Glo™ Glycosyltransferase assay kit (Promega Corporation, Madison, WI, USA (Promega)), GCS activity was indirectly measured by detecting the amount of UDP produced. An aliquot of GCS enzyme (1.5 μg crude golgi preparation, total protein) and titrated test compound were aliquoted to each well and incubated for 30 minutes at room temperature. […] An equivalent volume of substrate mixture was then added to each well. Following a 20 h incubation at room temperature to allow for GCS turnover of substrate, an equal volume of UDP detection reagent (Promega) was added to each well and incubated for an additional 75 minutes at room temperature to simultaneously convert the accumulated UDP product into ATP and generate light in a luciferase reaction. The generated light was detected using a luminometer. […] luminescence values (RLUs) were normalized to mean “min” and “max” effects, as determined on each plate. “Min” was defined as the mean of the values of the wells treated with vehicle (DMSO) and which represent 0% inhibition; “max” was defined as the mean of the values of the wells treated with a reference inhibitor and which represent the 100% effect. Values for % Emax and EC50 were determined by best-fitting the normalized data to a curve in Activity Base along a four-parameter logistic nonlinear regression (4PL) model (based on the Levenberg-Marquardt algorithm and defined by the equation below): […]
where: n is 4PMin (bottom of the curve); m is 4PMax (top of the curve); i is IP (inflection point of curve); and p is slope. See Levenberg, K., “A Method for the Solution of Certain Problems in Least Squares”, Quart. Appl. Math. 2, (1944), pp 164-168 and Marquardt, D., “An Algorithm for Least Squares Estimation on Nonlinear Parameters”, SIAM J. Appl. Math. 11, (1963) pp 431-441.

glucosylceramide synthase (GCS), sequence (Q16739 whole entry): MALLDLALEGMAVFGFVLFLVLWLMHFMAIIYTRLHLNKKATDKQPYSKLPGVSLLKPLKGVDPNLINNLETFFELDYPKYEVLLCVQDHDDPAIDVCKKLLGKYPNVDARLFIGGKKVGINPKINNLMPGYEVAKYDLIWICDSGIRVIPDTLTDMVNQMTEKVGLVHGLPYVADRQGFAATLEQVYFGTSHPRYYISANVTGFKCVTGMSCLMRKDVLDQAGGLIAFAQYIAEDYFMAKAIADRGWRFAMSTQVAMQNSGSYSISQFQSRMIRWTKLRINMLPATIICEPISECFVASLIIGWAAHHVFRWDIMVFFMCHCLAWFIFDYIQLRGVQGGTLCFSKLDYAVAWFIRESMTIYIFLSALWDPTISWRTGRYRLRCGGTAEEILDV

| pEC50 | Compound |
| --- | --- |
| 8.17 | O=C(N[C@H]1C[C@@H](CO)C1)c1cn2cccc(-c3ccccc3OCC(F)(F)F)c2n1 [Compound 40] |
| 8.68 | COc1cc(-c2ccccc2OCC(F)(F)F)c2nc(C(=O)NC(C)(C)C(F)(F)F)cn2c1 [Compound 43, 6-methoxy-N-(1,1,1-trifluoro-2-methylpropan-2-yl)-8-(2-(2,2,2-trifluoroethoxy)phenyl)imidazo[1,2-a]pyridine-2-carboxamide] |
| 7.17 | CC(C)(O)c1cn2cc(Cl)cc(-c3ccc(F)cc3OCC(F)(F)F)c2n1 [Compound 67, 2-(6-chloro-8-(4-fluoro-2-(2,2,2-trifluoroethoxy)phenyl)imidazo[1,2-a]pyridin-2-yl) propan-2-ol] |
| 8.16 | O=C(Nc1ccc2c(F)ccc(-c3ccccc3OCC(F)(F)F)c2n1)[C@H]1C[C@H](O)C1 [Compound 83, trans-N-(5-fluoro-8-(2-(2,2,2-trifluoroethoxy)phenyl)quinolin-2-yl)-3-hydroxycyclobutane-1-carboxamide] |
| 7.33 | O=C(N[C@H]1CC[C@H](O)CC1)c1nc2c(-c3ccccc3OCC(F)(F)F)cccn2c1F [Compound 32, 3-fluoro-N-(trans-4-hydroxycyclohexyl)-8-(2-(2,2,2-trifluoroethoxy)phenyl)imidazo[1,2-a]pyridine-2-carboxamide] |
| 8.40 | O=C(N[C@H]1COC[C@@H]1F)c1cn2cc(Cl)cc(-c3ccccc3OCC(F)(F)F)c2n1 [Compound 46, 6-chloro-N-((3S,4R)-4-fluorotetrahydrofuran-3-yl)-8-(2-(2,2,2-trifluoroethoxy)phenyl)imidazo[1,2-a]pyridine-2-carboxamide] |
| 8.51 | CC(C)(NC(=O)c1cn2cccc(-c3ccccc3OCC(F)(F)F)c2n1)C(F)(F)F [Compound 3, N-(1,1,1-trifluoro-2-methylpropan-2-yl)-8-(2-(2,2,2-trifluoroethoxy)phenyl)imidazo[1,2-a]pyridine-2-carboxamide] |
| 7.49 | CC(C)(O)C1(C)COC(c2cn3cc(Cl)cc(-c4ccccc4OCC(F)(F)F)c3n2)=N1 (centres unmarked) [Compound 78, 2-[2-[6-chloro-8-[2-(2,2,2-trifluoroethoxy)phenyl]imidazo[1,2-a]pyridin-2-yl]-4-methyl-5H-oxazol-4-yl]propan-2-ol] |
| 8.35 | CC(C)(C#N)CNC(=O)c1cn2cc(Cl)cc(-c3ccccc3OCC(F)(F)F)c2n1 [Compound 8, 6-chloro-N-(2-cyano-2-methylpropyl)-8-(2-(2,2,2-trifluoroethoxy)phenyl)imidazo[1,2-a]pyridine-2-carboxamide] |
| 7.52 | CC(C)(O)C1COC(c2cn3cc(Cl)cc(-c4ccccc4OCC(F)(F)F)c3n2)=N1 (centres unmarked) [Compound 75, 2-(2-(6-chloro-8-(2-(2,2,2-trifluoroethoxy)phenyl)imidazo[1,2-a]pyridin-2-yl)-4,5-dihydrooxazol-4-yl)propan-2-ol] |
| 10.54 | O=C(Nc1cccnc1)c1cn2cc(C(F)(F)F)cc(-c3ccccc3OCC(F)(F)F)c2n1 [Compound 15, N-(pyridin-3-yl)-8-(2-(2,2,2-trifluoroethoxy)phenyl)-6-(trifluoromethyl)imidazo[1,2-a]pyridine-2-carboxamide] |
| 8.24 | CC(O)c1cn2cc(C(F)(F)F)cc(-c3ccccc3OCC(F)(F)F)c2n1 (single isomer, unassigned) [Compound 63, (R or S) 1-(8-(2-(2,2,2-trifluoroethoxy)phenyl)-6-(trifluoromethyl)imidazo[1,2-a]pyridin-2-yl)ethan-1-ol] |
| 8.24 | CC(C)(C)NC(=O)c1cn2cc(F)cc(-c3ccccc3OCC(F)(F)F)c2n1 [Compound 13, N-(tert-butyl)-6-fluoro-8-(2-(2,2,2-trifluoroethoxy)phenyl)imidazo[1,2-a]pyridine-2-carboxamide] |
| 7.74 | CN1CC2(C1)CN(C(=O)c1cn3cccc(-c4ccccc4OCC(F)(F)F)c3n1)CCO2 [Compound 49, (2-methyl-5-oxa-2,8-diazaspiro[3.5]nonan-8-yl)(8-(2-(2,2,2-trifluoroethoxy)phenyl)imidazo[1,2-a]pyridin-2-yl)methanone] |
| 8.60 | O=C(NC12CCC(O)(CC1)C2)c1cn2cc(Cl)cc(-c3ccccc3OCC(F)(F)F)c2n1 [Compound 25, 6-chloro-N-(4-hydroxybicyclo[2.2.1]heptan-1-yl)-8-(2-(2,2,2-trifluoroethoxy)phenyl)imidazo[1,2-a]pyridine-2-carboxamide] |
| 7.42 | COCC(C)(C)NC(=O)c1cn2cccc(-c3ccccc3OCC(F)(F)F)c2n1 [Compound 11, N-(1-methoxy-2-methylpropan-2-yl)-8-(2-(2,2,2-trifluoroethoxy)phenyl)imidazo[1,2-a]pyridine-2-carboxamide] |
| 7.59 | C[C@@H](NC(=O)c1cn2cccc(-c3ccccc3OCC(F)(F)F)c2n1)C(F)(F)F [Compound 4, (R)-8-(2-(2,2,2-trifluoroethoxy)phenyl)-N-(1,1,1-trifluoropropan-2-yl)imidazo[1,2-a]pyridine-2-carboxamide] |
| 7.44 | O=C(c1cn2cccc(-c3ccccc3OCC(F)(F)F)c2n1)N1Cc2cccnc2C1 [Compound 12, (5,7-dihydro-6H-pyrrolo[3,4-b]pyridin-6-yl)(8-(2-(2,2,2-trifluoroethoxy)phenyl)imidazo[1,2-a]pyridin-2-yl)methanone] |
| 8.13 | O=C(NC1CCCC1)c1cn2cc(F)cc(-c3ccccc3OCC(F)(F)F)c2n1 [Compound 28, N-cyclopentyl-6-fluoro-8-(2-(2,2,2-trifluoroethoxy)phenyl)imidazo[1,2-a]pyridine-2-carboxamide] |
| 8.26 | O=C(NC(c1cccnc1)C(F)(F)F)c1cn2cccc(-c3ccccc3OCC(F)(F)F)c2n1 (racemic) [Compound 38, (R and S)-N-(2,2,2-trifluoro-1-(pyridin-3-yl)ethyl)-8-(2-(2,2,2-trifluoroethoxy)phenyl)imidazo[1,2-a]pyridine-2-carboxamide] |
| 8.54 | O=C(c1cn2cccc(-c3ccccc3OCC(F)(F)F)c2n1)N1CCn2ccnc2C1 [Compound 55, (5,6-dihydroimidazo[1,2-a]pyrazin-7(8H)-yl)(8-(2-(2,2,2-trifluoroethoxy)phenyl)imidazo[1,2-a]pyridin-2-yl)methanone] |
| 10.08 | O=C(Nc1cccnc1)c1cn2cc(F)cc(-c3ccccc3OCC(F)(F)F)c2n1 [Compound 61, 6-fluoro-N-(pyridin-3-yl)-8-(2-(2,2,2-trifluoroethoxy)phenyl)imidazo[1,2-a]pyridine-2-carboxamide] |
| 7.80 | CC1(CO)CN=C(c2cn3cc(Cl)cc(-c4ccccc4OCC(F)(F)F)c3n2)O1 (centres unmarked) [Compound 71, (2-(6-chloro-8-(2-(2,2,2-trifluoroethoxy)phenyl)imidazo[1,2-a]pyridin-2-yl)-5-methyl-4,5-dihydrooxazol-5-yl)methanol] |
| 9.07 | CC(C)(CO)NC(=O)c1cn2cc(Cl)cc(-c3ccccc3OCC(F)(F)F)c2n1 [Compound 20, 6-chloro-N-(1-hydroxy-2-methylpropan-2-yl)-8-(2-(2,2,2-trifluoroethoxy)phenyl)imidazo[1,2-a]pyridine-2-carboxamide] |
| 8.25 | COc1ccc(Cl)cc1-c1cccn2cc(C(=O)NC34CCC(O)(CC3)C4)nc12 [Compound 30, 8-(5-chloro-2-methoxyphenyl)-N-(4-hydroxybicyclo[2.2.1]heptan-1-yl)imidazo[1,2-a]pyridine-2-carboxamide] |
| 9.10 | CC1(O)CCC(NC(=O)c2cn3cc(F)cc(-c4ccccc4OCC(F)(F)F)c3n2)CC1 (stereo not drawn) [Compound 26, cis or trans-6-fluoro-N-(4-hydroxy-4-methylcyclohexyl)-8-(2-(2,2,2-trifluoroethoxy)phenyl)imidazo[1,2-a]pyridine-2-carboxamide] |
| 9.82 | Cc1ccncc1NC(=O)c1cn2cccc(-c3ccccc3OCC(F)(F)F)c2n1 [Compound 56, N-(4-methylpyridin-3-yl)-8-(2-(2,2,2-trifluoroethoxy)phenyl)imidazo[1,2-a]pyridine-2-carboxamide] |
| 8.68 | O=C(N[C@H]1CC[C@H](CO)CC1)c1cn2cccc(-c3ccccc3OCC(F)(F)F)c2n1 [Compound 29, N-(trans-4-(hydroxymethyl)cyclohexyl)-8-(2-(2,2,2-trifluoroethoxy)phenyl)imidazo[1,2-a]pyridine-2-carboxamide] |

| Compound | pEC50 |
| --- | --- |
| NCc1cn2cccc(-c3ccccc3OCC(F)(F)F)c2n1 [Compound 80, (8-(2-(2,2,2-trifluoroethoxy)phenyl)imidazo[1,2-a]pyridin-2-yl)methanamine] | 6.48 |
